Results: patent publication US20190055576A1, “USE OF HERBICIDE-TOLERANT PROTEIN” (BEIJING DABEINONG TECHNOLOGY GROUP CO., LTD., priority 2016, published 2019)

Test system: wild-type Arabidopsis thaliana plants
Test: Herbicide tolerance of wild-type Arabidopsis thaliana plants, resistance classes counted after spraying
Assay type: in vivo
Source text: T1 transformants were initially selected from the background of untransformed seeds using a glufosinate selection scheme. About 40000 T1 seeds were screened, and 380 T1 positive transformants (PAT gene) were identified with a transformation efficiency of about 0.95%. The plants that were transformed with the recombinant expression vector DBN100632 were Arabidopsis thaliana plants having an ALT-1-01 nucleotide sequence located in the cytoplasm introduced (At cytoplasmic ALT-1-01), and the plants that were transformed with the recombinant expression vector DBN100631 were Arabidopsis thaliana plants having an ALT-1-01 nucleotide sequence located in the chloroplast introduced (At chloroplastic ALT-1-01); the plants that were transformed with the recombinant expression vector DBN100634 were Arabidopsis thaliana plants having an ALT-2-01 nucleotide sequence located in the cytoplasm introduced (At cytoplasmic ALT-2-01), and the plants that were transformed with the recombinant expression vector DBN100633 were Arabidopsis thaliana plants having an ALT-2-01 nucleotide sequence located in the chloroplast introduced (At chloroplastic ALT-2-01); and the plants that were transformed with the recombinant expression vector DBN100636 were Arabidopsis thaliana plants having an ALT-3-01 nucleotide sequence located in the cytoplasm introduced (At cytoplasmic ALT-3-01), and the plants that were transformed with the recombinant expression vector DBN100635 were Arabidopsis thaliana plants having an ALT-3-01 nucleotide sequence located in the chloroplast introduced (At chloroplastic ALT-3-01). The herbicide tolerance effects of At cytoplasmic ALT-1-01 T1 plants, At chloroplastic ALT-1-01 T1 plants, At cytoplasmic ALT-2-01 T1 plants, At chloroplastic ALT-2-01 T1 plants, At cytoplasmic ALT-3-01 T1 plants, At chloroplastic ALT-3-01 T1 plants and wild-type Arabidopsis thaliana plants on Sulfometuron-methyl were detected (14 days after sowing), respectively.
At cytoplasmic ALT-1-01 T1 plants, At chloroplastic ALT-1-01 T1 plants, At cytoplasmic ALT-2-01 T1 plants, At chloroplastic ALT-2-01 T1 plants, At cytoplasmic ALT-3-01 T1 plants, At chloroplastic ALT-3-01 T1 plants and wild-type Arabidopsis thaliana plants were sprayed with Sulfometuron-methyl (30 g ai/ha, 1-fold field concentration) and a blank solvent (water), respectively. Plants were counted for the resistance situations 14 days after spraying: those having a consistent growth status with the blank solvent (water) group after 14 days were classified as highly resistant plants, those having a bolting height less than ½ of that of the blank solvent (water) group after 14 days were classified as moderately resistant plants, those still not capable of bolting after 14 days were classified as poorly resistant plants, and those dead after 14 days were classified as non-resistant plants. Since each Arabidopsis thaliana T1 plant was an independent transformation event, a significant difference in individual T1 responses could be expected at a given dose.
At cytoplasmic ALT-1-01 T1 plants, At chloroplastic ALT-1-01 T1 plants, At cytoplasmic ALT-2-01 T1 plants, At chloroplastic ALT-2-01 T1 plants, At cytoplasmic ALT-3-01 T1 plants, At chloroplastic ALT-3-01 T1 plants and wild-type Arabidopsis thaliana plants in Example 4 were sprayed with iodosulfuron-methyl (10 g ai/ha, 1-fold field concentration), mesosulfuron (14 g ai/ha, 1-fold field concentration) and oxasulfuron (60 g ai/ha, 1-fold field concentration), respectively, in addition to Sulfometuron-methyl (30 g ai/ha, 1-fold field concentration) and the blank solvent (water). […]

[1] = 1-fold field concentration (g ai/ha: Sulfometuron-methyl 30, iodosulfuron-methyl 10, mesosulfuron 14, oxasulfuron 60), 14 days after spraying

## COC(=O)c1ccccc1S(=O)(=O)NC(=O)Nc1nc(C)cc(C)n1 [Sulfometuron-methyl, 2-(4,6-dimethylpyrimidine-2-amino-formamido-sulfonyl) methyl benzoate]
[1]
  Highly resistant (number of plants with growth status consistent with blank solvent group): 0
  Moderately resistant (number of plants with bolting height less than 1/2 of blank solvent group): 0
  Non-resistant (number of plants dead): 32
  Poorly resistant (number of plants still not capable of bolting): 0
30 g ai/ha
  herbicide tolerance of wild-type plants: none of the wild-type Arabidopsis thaliana plants was tolerant
